Patent US7666913B2, “Method of treating or preventing osteoporosis using isotaxiresinol derived from Taxus yunnanensis” (Kotosugi Inc., priority 2004, dated 2010)

How the values were obtained:
Assay type in all cases: in vivo, rat
[1] = system: ovariectomized female Wistar rats, proximal tibia bone; experiment: Antiosteoporotic activity in ovariectomized rats: pQCT of proximal tibia (BMC, BMD, cortical geometry, bone strength indices); conditions: for Cancellous bone BMC / Cancellous bone BMD / Cortical bone BMC / Cortical bone BMD / Cortical bone thickness / Edno. C. (endosteal circumference) / Peri. C. (periosteal circumference) / Total bone BMC / Total bone BMD / Cortical bone thickness as % of that of the Sham group / Bone strength index PSSI / Bone strength index XSSI / Bone strength index YSSI: OVX rats; for Cancellous bone BMC / Cancellous bone BMD / Cortical bone BMC / Cortical bone BMD / Cortical bone thickness / Edno. C. (endosteal circumference) / Peri. C. (periosteal circumference) / Total bone BMC / Total bone BMD / Bone strength index PSSI / Bone strength index XSSI / Bone strength index YSSI: 6 weeks, 1 mm under growth plate
Experimental: Antiosteoporotic Activity of ITX was Assessed by Using Rats. Each of the animal groups for experiments included comprised 10 rats. Ovaries were removed from female Wistar rats (age: 8 months, weight: 260-330 g). ITX, suspended in 1% water solution of carboxymethl cellulose sodium salt, was orally administered to rats of one group in a dose of 50 mg/kg (weight of rat) and to rats of another group in a dose of 100 mg/kg (weight of rat) 6 times per week after 2 weeks of the removal. […] An OVX (ovariectomized) group was prepared as negative control. Furthermore, another group was sham-operated as a Sham group. The OVX group and the Sham group were only fed, with no compound or drug given. Tibial characteristics of the rats, which were anesthetized in advance, were measured by means of peripheral quantitative computed tomography (pQCT) 6 weeks after the initiation of the administration (i.e., 8 weeks after the removal of the ovaries). In the measurement, the left tibiae were scanned with a pQCT system XCT Research M (manufactured by Stratec Medizintechnik GmbH, Germany). Voxel size was set to 0.08 mm, slice thickness was set to 0.5 mm, and cortical BMD threshold was set to 464 mg/cm^3. Furthermore, peel mode was set to 20 to divide total bone into cortical bone or cancerous bone. A growth plate was identified after preliminary scanning (scout scan), and then a reference position was identified. Next, transverse image sets of four cross-sectional slices were scanned at a region of 1 to 5 mm under the growth plate. Cortical BMC and BMD and cancellous BMC and BMD, thickness of cortical bone, and periosteal circumference and endosteal circumference of cortical bone were measured at a separation mode of 3 and a contour mode of 2. Three indices of bone strength (X-, Y-, and Polar-axes) were also measured, and the data obtained were processed by XCT Research Series Manual Software Version 5.4, in which case the standard cortical BMD was set to 1,200 mg/cm^3. […] The figures in the total bone columns show the values of the whole bone obtained by measuring cancellous bone and cortical bone together. […] The presentation of t-test results applies to Table 4 as well. In the experiment, three bone strength indexes were measured: PSSI (polar-axis strength index), XSSI (X-axis strength index), and YSSI (Y-axis strength index).

[2] = system: ovariectomized female Wistar rats; experiment: Antiosteoporotic activity in ovariectomized rats: body weight and uterine weight
Experimental: Each of the animal groups for experiments included comprised 10 rats. Ovaries were removed from female Wistar rats (age: 8 months, weight: 260-330 g). ITX, suspended in 1% water solution of carboxymethl cellulose sodium salt, was orally administered to rats of one group in a dose of 50 mg/kg (weight of rat) and to rats of another group in a dose of 100 mg/kg (weight of rat) 6 times per week after 2 weeks of the removal.
An OVX (ovariectomized) group was prepared as negative control. Furthermore, another group was sham-operated as a Sham group. The OVX group and the Sham group were only fed, with no compound or drug given.
Furthermore, a tibia, a femur, and a uterus were removed from every rat and then weighted.

[3] = system: ovariectomized female Wistar rats, tibiae and femora; experiment: Antiosteoporotic activity in ovariectomized rats: weight and length of tibiae and femora; conditions: for Femur Length / Femur Weight / Tibia Length / Tibia Weight: OVX rats, mean ± SD
Experimental: Each of the animal groups for experiments included comprised 10 rats. Ovaries were removed from female Wistar rats (age: 8 months, weight: 260-330 g). ITX, suspended in 1% water solution of carboxymethl cellulose sodium salt, was orally administered to rats of one group in a dose of 50 mg/kg (weight of rat) and to rats of another group in a dose of 100 mg/kg (weight of rat) 6 times per week after 2 weeks of the removal. […] An OVX (ovariectomized) group was prepared as negative control. Furthermore, another group was sham-operated as a Sham group. The OVX group and the Sham group were only fed, with no compound or drug given. Furthermore, a tibia, a femur, and a uterus were removed from every rat and then weighted. […] In the table, ITX 100 is a group of the rats which ITX was given to in a dose of 100 mg/kg, and ITX 50 is a group of the rats which ITX was given to in a dose of 50 mg/kg. E2 is a group of the rats which E2 was given to. The figures in each column of the table show averages and standard deviations of the measured values. The presentation of the figures applies to Table 3 and Table 4 as well.

[4] = E2 0.1 mg/kg into abdominal cavity
[5] = ITX 50 mg/kg oral, 6 times per week
[6] = ITX 100 mg/kg oral, 6 times per week

C[C@]12CC[C@@H]3c4ccc(O)cc4CC[C@H]3[C@@H]1CC[C@@H]2O [E2, 17β-estradiol, reference compound]
BMC and BMD (total, cancellous, cortical) compared to the OVX group (in words) ([1]; E2 0.1 mg/kg): inhibition of decrease in all but except total BMD and cancellous BMC
Endosteal circumference compared to the OVX group (in words) ([1]; E2 0.1 mg/kg): inhibition of increase
Increase in XSSI compared to the OVX group ([1]; E2 0.1 mg/kg): 15.3%
Increase in YSSI compared to the OVX group ([1]; E2 0.1 mg/kg): 23.5%
Increase in cortical bone thickness compared to the OVX group ([1]; E2 0.1 mg/kg): 9.8%
Periosteal circumference compared to the OVX group (in words) ([1]; E2 0.1 mg/kg): a decrease
Cancellous bone BMC [1, 4]: 0.96 ± 0.17 mg/mm
Cancellous bone BMD [1, 4]: 244 ± 53 mg/mL
Cortical bone BMC [1, 4]: 7.58 ± 0.48 mg/mm
Cortical bone BMD [1, 4]: 1143 ± 22 mg/mL
Cortical bone thickness [1, 4]: 0.56 ± 0.03 mm
Edno. C. (endosteal circumference) [1, 4]: 9.79 ± 0.57 mm
Peri. C. (periosteal circumference) [1, 4]: 13.4 ± 0.6 mm
Total bone BMC [1, 4]: 10.5 ± 0.7 mg/mm
Total bone BMD [1, 4]: 723 ± 38 mg/mL
Body weight at the end compared to the OVX group (in words) ([2]; E2 0.1 mg/kg): inhibition of increase
Body weight at the end ([2]; OVX rats, E2 0.1 mg/kg into abdominal cavity, end of the experiment): 299 ± 33 g
Decrease in uterine weight compared to the Sham group ([2]; OVX rats, E2 0.1 mg/kg, end of the experiment): 48.5%
Femur Length [3, 4]: 3.59 ± 0.15 cm
Femur Weight [3, 4]: 861 ± 65 mg
Tibia Length [3, 4]: 3.76 ± 0.14 cm
Tibia Weight [3, 4]: 547 ± 94 mg

COc1cc2c(cc1O)[C@H](c1ccc(O)c(O)c1)[C@@H](CO)[C@H](CO)C2 [ITX, isotaxiresinol]
Cortical BMC compared to the OVX group (in words) ([1]; ITX 50 mg/kg oral): inhibition of decrease
Cortical BMD compared to the OVX group (in words) ([1]; ITX 50 mg/kg oral): inhibition of decrease
Endosteal circumference compared to the OVX group (in words) ([1]; ITX 50 mg/kg oral): inhibition of increase
Increase in PSSI compared to the OVX group ([1]; ITX 50 mg/kg oral): 16.2%
Increase in XSSI compared to the OVX group ([1]; ITX 50 mg/kg oral): 14.2%
Increase in YSSI compared to the OVX group ([1]; ITX 50 mg/kg oral): 24.0%
Periosteal circumference compared to the OVX group (in words) ([1]; ITX 50 mg/kg oral): the same level or an increase
Total BMD compared to the OVX group (in words) ([1]; ITX 50 mg/kg oral): inhibition of decrease
Cancellous BMC compared to the OVX group (in words) ([1]; ITX 100 mg/kg oral): inhibition of decrease
Cortical BMD compared to the OVX group (in words) ([1]; ITX 100 mg/kg oral): inhibition of decrease
Endosteal circumference compared to the OVX group (in words) ([1]; ITX 100 mg/kg oral): inhibition of increase
Periosteal circumference compared to the OVX group (in words) ([1]; ITX 100 mg/kg oral): the same level or an increase
Cortical bone thickness as % of that of the Sham group ([1]; ITX 50 mg/kg oral): 98.3%
Bone strength index PSSI ([1]; ITX 50 mg/kg oral): 10.35 ± 0.89
Bone strength index XSSI ([1]; ITX 50 mg/kg oral): 5.15 ± 0.62
Bone strength index YSSI ([1]; ITX 50 mg/kg oral): 6.45 ± 0.67
Cancellous bone BMC ([1]; ITX 50 mg/kg oral): 0.99 ± 0.12 mg/mm
Cancellous bone BMD ([1]; ITX 50 mg/kg oral): 215 ± 25 mg/mL
Cortical bone BMC ([1]; ITX 50 mg/kg oral): 7.72 ± 0.52 mg/mm
Cortical bone BMD ([1]; ITX 50 mg/kg oral): 1137 ± 14 mg/mL
Cortical bone thickness ([1]; ITX 50 mg/kg oral): 0.58 ± 0.03 mm
Edno. C. (endosteal circumference) ([1]; ITX 50 mg/kg oral): 9.92 ± 0.54 mm
Peri. C. (periosteal circumference) ([1]; ITX 50 mg/kg oral): 13.7 ± 0.5 mm
Total bone BMC ([1]; ITX 50 mg/kg oral): 10.4 ± 0.8 mg/mm
Total bone BMD ([1]; ITX 50 mg/kg oral): 707 ± 14 mg/mL
Cortical bone thickness as % of that of the Sham group ([1]; ITX 100 mg/kg oral): 93.2%
Bone strength index PSSI ([1]; ITX 100 mg/kg oral): 9.34 ± 0.70
Bone strength index XSSI ([1]; ITX 100 mg/kg oral): 4.77 ± 0.68
Bone strength index YSSI ([1]; ITX 100 mg/kg oral): 5.71 ± 0.41
Cancellous bone BMC ([1]; ITX 100 mg/kg oral): 1.04 ± 0.15 mg/mm
Cancellous bone BMD ([1]; ITX 100 mg/kg oral): 207 ± 28 mg/mL
Cortical bone BMC ([1]; ITX 100 mg/kg oral): 7.40 ± 0.29 mg/mm
Cortical bone BMD ([1]; ITX 100 mg/kg oral): 1138 ± 17 mg/mL
Cortical bone thickness ([1]; ITX 100 mg/kg oral): 0.55 ± 0.03 mm
Edno. C. (endosteal circumference) ([1]; ITX 100 mg/kg oral): 9.97 ± 0.37 mm
Peri. C. (periosteal circumference) ([1]; ITX 100 mg/kg oral): 13.6 ± 0.4 mm
Total bone BMC ([1]; ITX 100 mg/kg oral): 9.82 ± 0.37 mg/mm
Total bone BMD ([1]; ITX 100 mg/kg oral): 683 ± 21 mg/mL
Body weight at the end compared to the OVX group (in words) ([2]; ITX 50 mg/kg oral): inhibition of increase
Body weight at the end compared to the OVX group (in words) ([2]; ITX 100 mg/kg oral): inhibition of increase
Body weight at the end ([2]; OVX rats, ITX 50 mg/kg oral, end of the experiment): 318 ± 18 g
Body weight at the end ([2]; OVX rats, ITX 100 mg/kg oral, end of the experiment): 301 ± 15 g
Tibia weight compared with the OVX group (in words) ([3]; ITX 50 mg/kg oral): no significant difference
Femur weight compared with the OVX group (in words) ([3]; ITX 100 mg/kg oral): no significant difference
Femur Length [3, 5]: 3.64 ± 0.05 cm
Femur Weight [3, 5]: 862 ± 64 mg
Tibia Length [3, 5]: 3.98 ± 0.14 cm
Tibia Weight [3, 5]: 588 ± 52 mg
Femur Length [3, 6]: 3.59 ± 0.22 cm
Femur Weight [3, 6]: 897 ± 83 mg
Tibia Length [3, 6]: 3.97 ± 0.24 cm
Tibia Weight [3, 6]: 562 ± 95 mg
